Experimental findings from article PMC6264499, “In silico identification and experimental validation of hits active against KPC-2 β-lactamase” (PLoS ONE, 2018) are described below.

pIC50, pKi: −log10 of the molar value.

As a reminder, the MIC is the lowest concentration found to suppress growth. One may read the pIC50 as the negative decadic logarithm of the IC50, by convention in mol/L. In general, pKi refers to the Ki on a negative log10 scale, so that one unit is a factor of ten.

The test system of one data set is Kpn (C-). Nature of the data set: MIC of meropenem, alone or 1:1 with compounds, control strain. It counts as cell-based, K. pneumoniae. The note with it: Klebsiella pneumoniae, no compound added. As for the experimental part:
(§1) The antimicrobial activity of the best hits 9a and 11a and their derivatives was studied in bacterial cell cultures to investigate their ability to cross the outer membrane reaching the periplasmic space, where KPC-2 is secreted and confined in Gram negative bacteria. Compounds were tested for synergy with the β-lactam antibiotic meropenem against four K. pneumoniae clinical strains, isolated from different patients at the Hospital Universitario Son Espases, Palma de Mallorca, Spain. […] The three additional strains harbored the blaKPC-2 gene and were resistant to meropenem (Table 2). […] However, against strain Kpn 53A8 the MIC value was lowered by a factor of two when meropenem was combined with compounds 32a, 1b, 2b, 5b and 6b while in combination with compound 11a the MIC value was reduced by 4 fold.

The next data set relates to Kpn 53A8. Nature of the data set: MIC of meropenem, alone or 1:1 with compounds, KPC-2 clinical strain. It counts as cell-based, K. pneumoniae. The conditions noted are these: for fold reduction of meropenem MIC in combination with compound: strain Kpn 53A8. As for the experimental part: as §1
The next data set concerns Kpn 53A9. Described as above. It counts as cell-based, K. pneumoniae. The conditions noted are these: Klebsiella pneumoniae, no compound added. As for the experimental part:
as §1

In another data set the test system is Kpn 99D8. The description is as above. It counts as cell-based, K. pneumoniae. The note with it: Klebsiella pneumoniae, no compound added. As for the experimental part: as §1
Data set [1] addresses T1, recombinant KPC-2 (Klebsiella pneumoniae, UniProt Q9F663).
T1 construct: made in house; host or cells: E. coli BL21 (DE3)
Nature of the data set: KPC-2 inhibition assay, nitrocefin as reporter substrate. It counts as biochemical. The conditions noted are these: for pIC50: nitrocefin 114.28 μM (Km 36 μM), 25°, 485 nm. As for the experimental part: (§2) The blaKPC-2 gene was kindly provided by Prof. Sergei Vakulenko (University of Notre Dame du Lac, Indiana, USA) and cloned as already reported and transformed into competent E.coli BL21 (DE3) cells for protein expression. 50 mL of Tryptic Soy Broth (TSB) (50 mg/L kanamycin) were inoculated with fresh colonies and grown at 37°C. 4 mL of the overnight culture was used to inoculate 1.3 L of TSB (50 mg/L kanamycin) grown at 37°C with shaking to an optical density of 0.5 measured at 600 nm. Then expression of recombinant bla gene was induced by adding 1.0 mM IPTG (isopropyl-D-thiogalactopyranoside) and the cells were again allowed to grow at 20°C overnight. Bacteria were harvested by centrifugation at 4000 rpm for 20 minutes. The pelleted cells were resuspended in Tris-HCl 50 mM pH 7.4–7.5. Periplasmatic proteins were extracted as reported in the pET System Manual (TB055 10th Edition Rev. B 0403) and subsequently dialyzed in sodium acetate buffer (50 mM, pH 5.0). The protein was conveniently purified in a single step using a Macro-Prep High S resin and eluted using sodium acetate 50 mM pH 5.0 and a sodium chloride (NaCl) linear gradient from 100 to 500 mM. The purified protein was dialyzed overnight in sodium phosphate buffer 50 mM, pH 7.0 [31, 32].
(§3) The hydrolytic activity of KPC-2 was measured using the β-lactam substrates CENTA (100 uM, KM 70 uM) or nitrocefin (114 uM, KM 36 μM) in reaction buffer consisting of 50 mM of PB at pH 7.0 at 25°C with 0.01% v/v Triton X-100 to avoid compound aggregation and promiscuous inhibition.[33] Reactions were monitored using a Beckmann DU640 spectrophotometer at […] for CENTA and 480 nm wavelength for nitrocefin [34]. The test compounds were synthesized as described below or purchased from Enamine, TimTec, Vitas-M, ChemBridge, Otava, Life Chemicals or Apollo Scientific and assayed without further purification. Compounds were dissolved in dimethyl sulfoxide (DMSO) to a concentration of 25 mM and stored at -20°C. The highest concentration at which the compounds were tested was up to 1 mM (depending on their solubility). All experiments were performed in duplicate and the error never exceeded 5%. The reaction was typically initiated by adding KPC-2 to the reaction buffer last. To control for incubation effects, protein was added to the reaction buffer first, and the reaction was initiated by the addition of reporter substrate after 10 minutes of enzyme-compound incubation.
Kinetic were monitored at 25° by following the absorbance variation at λ = 485 nm. ^[b] If no IC50 has been measured, percent inhibition at the highest tested concentration is given in parentheses. […] When % Inhibition was below 10% No Inhibition (NI) is reported. TEXT PRINTED IN THE PICTURE: 11a: IC50 mM [a,b]: 0.036 | 1b: IC50 mM [a,b]: > 0.2 (25) | 2b: IC50 mM [a,b]: >0.6 (23) | 3b: IC50 mM [a,b]: Not tested not soluble | 4b: IC50 mM [a,b]: > 0.2 (16) | 5b: IC50 mM [a,b]: > 0.2 (13) | 6b: IC50 mM [a,b]: NI at 0.2 | 7b: IC50 mM [a,b]: >1.0 (30) | 8b: IC50 mM [a,b]: > 1.0 (37) | 9b: IC50 mM [a,b]: NI at 0.5 | 10b: IC50 mM [a,b]: NI at 0.5 | 11b: IC50 mM [a,b]: > 1.0 (37) | 12b: IC50 mM [a,b]: NI at 0.5 | 13b: IC50 mM [a,b]: NI at 0.5 | 14b: IC50 mM [a,b]: >500 (20) DOUBTS OF THE COPYIST ABOUT THIS PICTURE: column head: raised note printed very small, read as [a,b]

Data set [2] deals with T1, recombinant KPC-2. Nature of the data set: KPC-2 inhibition assay, CENTA as reporter substrate. It counts as biochemical. As for the experimental part:
as §2, §3
Fig 4 Inhibitory activity of compounds selected from virtual screening. ^[a]Assays were performed in duplicate (errors were less than 5%) with CENTA as reporter substrate (100 μM, km 70 μM). Kinetic were monitored at 25° by following the absorbance variation at λ = 405 nm. ^[b] If no IC50 has been measured, percent inhibition at the highest tested concentration is given in parentheses. For example, > 0.50 (26%) implies that the highest concentration tested was 0.50 mM; at this concentration, the enzyme was inhibited by 26%. Therefore, IC50> 0.50 mM. When % Inhibition was below 10% No Inibition (NI) is reported. ^[c]Assays were run after 10’ incubation of the inhibitor with KPC-2. Reaction was started by the addition of CENTA. […] 0 (11) | 32a: IC50 mM ^[a,b]: 1.24
Competitive inhibition mechanism and the Ki for compound 9a was determined by Lineweaver–Burk (LB) and Dixon plots.

The target of a further data set is CTX-M9 (Escherichia coli, UniProt Q9L5C8). Nature of the data set: Inhibition of other class A β-lactamase CTX-M9. It counts as biochemical. As for the experimental part:
(§4) For compound 9a binding affinity and mode of inhibition was determined by using gradient concentrations of CENTA. […] For this compound aggregating behavior was also excluded by dynamic light scattering experiment (data not shown).

Data set [3] in a line: Dynamic light scattering, aggregating behavior. It counts as physicochemical. The note with it: dynamic light scattering (data not shown). The method, then:
as §4

Setting [4] is: read-out: percent inhibition at the highest tested concentration.

T1 sequence (Q9F663 25-293, looked up): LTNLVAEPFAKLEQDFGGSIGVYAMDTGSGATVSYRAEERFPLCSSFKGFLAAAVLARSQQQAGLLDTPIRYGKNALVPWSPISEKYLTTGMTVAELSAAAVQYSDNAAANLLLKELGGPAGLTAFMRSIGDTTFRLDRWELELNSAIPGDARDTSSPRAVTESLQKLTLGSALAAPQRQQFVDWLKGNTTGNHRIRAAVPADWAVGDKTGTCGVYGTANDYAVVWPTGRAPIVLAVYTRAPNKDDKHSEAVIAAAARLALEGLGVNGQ
Chain of CTX-M9 (Q9L5C8 29-291): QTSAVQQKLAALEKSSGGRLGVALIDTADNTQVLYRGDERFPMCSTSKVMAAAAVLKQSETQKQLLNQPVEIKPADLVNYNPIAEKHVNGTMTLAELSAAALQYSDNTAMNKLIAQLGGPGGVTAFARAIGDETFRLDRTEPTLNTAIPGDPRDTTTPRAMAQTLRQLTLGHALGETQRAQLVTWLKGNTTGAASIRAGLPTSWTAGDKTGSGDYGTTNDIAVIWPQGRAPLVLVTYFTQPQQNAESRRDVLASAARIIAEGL

Turning to `C[C@@H](O)[C@H]1C(=O)N2C(C(=O)O)=C(S[C@@H]3CN[C@H](C(=O)N(C)C)C3)[C@H](C)[C@H]12` [meropenem], the MIC in the data set on Kpn (C-) is less than 0.25 mg/L; with Kpn 53A8 (Klebsiella pneumoniae, Kpn 53A8, no compound added) it was 256 mg/L; in the data set with Kpn 53A9, 256 mg/L; in the data set on Kpn 99D8 it was 256 mg/L.

With `O=[N+]([O-])c1cccc(S(=O)(=O)Nc2cccc(-c3nnn[nH]3)c2)c1` [2b, N-(3-(1H-tetrazol-5-yl)phenyl)-3-nitrobenzenesulfonamide], the negative-log IC50 (pIC50) on recombinant KPC-2 [1] is less than 3.22. Moreover, the inhibition at 600 µM at recombinant KPC-2 [1] (setting [4]) turned out to be 23%. The “fold reduction of meropenem MIC in combination with compound” value (“fold reduction of meropenem MIC” for short) with Kpn 53A8 is given as “two”.

On to `COc1ccc2nc(C(=O)O)sc2c1` [9a], for which, on recombinant KPC-2 [2] (CENTA 100 μM, after 10' incubation of the inhibitor with KPC-2, read-out: IC50), the negative-log IC50 (pIC50) was 3.82. Further, the negative logarithm of the Ki (pKi) at recombinant KPC-2 [2] (Lineweaver–Burk and Dixon plots, gradient concentrations of CENTA, read-out: Ki (determined)) is 3.95. On recombinant KPC-2 [2] (vs KPC-2), the “ligand efficiency (LE)” value is listed as 0.38 kcal/mol/non-hydrogen atom and the mode of inhibition entry is given as “competitive inhibitor”. The molecule further gave a pIC50 against CTX-M9 of 3.80. The aggregating behavior entry in data set [3] is on record as “excluded”.

On to `O=S(=O)(Nc1cccc(-c2nnn[nH]2)c1)c1cccc2cccnc12` [5b, N-(3-(1H-tetrazol-5-yl)phenyl)quinoline-8-sulfonamide], for which, on recombinant KPC-2 [1], the negative logarithm of the IC50 (pIC50) was less than 3.70. In addition, at recombinant KPC-2 [1] (setting [4]), the inhibition at 200 µM came to 13%. Besides, the “fold reduction of meropenem MIC” value in the data set with Kpn 53A8 is given as “two”.

On to `O=S(=O)(Nc1cccc(-c2nnn[nH]2)c1)c1ccc(Cl)cc1` [6b, N-(3-(1H-tetrazol-5-yl)phenyl)-4-chlorobenzenesulfonamide], for which, on recombinant KPC-2 [1] (setting [4]), the inhibition at 200 µM was less than 10%. In the data set with Kpn 53A8, the “fold reduction of meropenem MIC” value is “two”.

For the molecule `O=S(=O)(Nc1cccc(-c2nnn[nH]2)c1)c1cccc(F)c1` [1b, N-(3-(1H-tetrazol-5-yl)phenyl)-3-fluorobenzenesulfonamide], the pIC50 at recombinant KPC-2 [1] was less than 3.70. Further, the inhibition at 200 µM on recombinant KPC-2 [1] (setting [4]) stood at 25%. In the data set with Kpn 53A8, the “fold reduction of meropenem MIC” value is recorded as “two”.
